Test results taken from patent US20080220056A1, “Treatment for liver disease” (UNIVERSITY OF SOUTHAMPTON, priority 2002, published 2008).

How the values were obtained:
[1] = test system: 10 day culture activated hepatic stellate cells; experiment: Nuclear morphology (acridine orange) of hepatic stellate cells treated with 5-HT2 antagonists; type: cell-based, rat
Experimental: (§1) The mRNA for the 5-HT2B receptor was only found in 10 day culture activated hepatic stellate cells, whereas the mRNA for the 5-HT2C receptor was absent from all cells investigated. […] 10 day culture activated hepatic stellate cells were treated with a range of 5-HT2 antagonists (including Spiperone HCl, Methiothepin Maleate and LY 53,857) at various concentrations and time periods and nuclear morphology was assessed using Acridine Orange (1 μg/ml) staining as described in Examples 1 and 2. […] Caspase 3 activity (as defined by pNA liberation) was subsequently determined at the predetermined optimal times and doses as described in Examples 1 and 2. 10 day culture activated hepatic stellate cells were also treated with the antagonist together with the 5-HT2 agonist serotonin (5-hydroxytryptamine 100 µM) to see if any modification of the caspase 3 specific activity could be achieved by direct receptor binding site competition.

[2] = test system: caspase 3 activity in 10 day culture activated hepatic stellate cells; experiment: Caspase 3 activity (pNA liberation) of hepatic stellate cells treated with 5-HT2 antagonists; type: cell-based, rat; conditions: for effect of serotonin on the specific caspase 3 activity: LY 53,857 100 μM 24 hours, Methiothepin maleate 10 μM 3 hours, with serotonin (100 M [sic])
Experimental: as §1

[3] = test system: caspase 3 activity in rat hepatic stellate cells; experiment: Caspase 3 (Ac-DEVD-pNA cleavage) activity in rat hepatic stellate cells; type: cell-based; conditions: 200 μmol/L chlorpromazine, three hours
Experimental: Hepatic stellate cells cultured in 100 mm diameter dishes (Greiner, Frickenhausen, Germany) were harvested and pelleted by centrifugation. The medium supernatant was discarded and the cell pellet was washed in 1 mL of ice-cooled phosphate buffered saline (PBS). Caspase 3 (DEVDase) activity was determined using a colorimetric CaspACE kit (Promega, Southampton, England) using the manufacturer's instructions.
Caspase 3 (Ac-DEVD-pNA cleavage) activity was then examined in control and gliotoxin-treated hepatic stellate cells. Culture activated rat hepatic stellate cells (14 days) in 100 mm diameter plates were treated with 0.05% (vol/vol) DMSO, 1.5 μmol/L gliotoxin, 20 μmol/L Z-VAD-FMK or 200 μmol/L chlorpromazine for three hours. The cells were then harvested for examination of caspase 3 activity as outlined in the materials and methods sections.

[4] = test system: rat hepatic stellate cells; experiment: Trypan blue exclusion of treated rat hepatic stellate cells; type: cell-based; conditions: rat HSC; 1.5 μmol/L gliotoxin or 200 μmol/L chlorpromazine
rat hepatocytes [5] = experiment: Rat hepatocyte viability by attachment and trypan blue exclusion; type: cell-based; conditions: 200 μmol/L, four hours
Experimental: Rat hepatocytes were isolated by collagenase perfusion essentially as previously described. (Harvey et al., Biochemical J., (1998) 331:273-281). Hepatocytes were cultured as outlined for hepatic stellate cells except that they were initially seeded onto collagen coated plates in William's medium E supplemented with 10% fetal calf serum and 1 μg/mL insulin for the first 2 hours.
Cells were treated with gliotoxin dissolved in DMSO vehicle (added to medium from a 2000-fold molar concentrated stock). Control cells received DMSO vehicle only (i.e., 0.05% vol/vol). All other additions to culture medium were made from concentrated stocks dissolved in DMSO or by direct addition to culture medium. Protein contents of wells were determined using the Lowry assay (Lowry et al., J. Biol. Chem., (1951)193: 265-275).
The effect of various compounds on cell viability and attachment was determined. Viability of rat hepatocytes as judged by attachment and 0.1% (wt/vol) trypan blue exclusion after four hours treatment with: […]

rat hepatocytes [6] = experiment: DNA laddering in rat hepatocytes; type: cell-based; conditions: four hours; 50 μmol/L gliotoxin, 200 μmol/L chlorpromazine, 200 μmol/L methapyrilene, 10 ng/mL TNF-α with cycloheximide
Experimental: Hepatic stellate cells cultured in 35-mm diameter dishes (Greiner) were harvested, pelleted by centrifugation and DNA fragmentation determined as outlined elsewhere (Elsharkawy et al., Hepatology (1999) 30:761-769). Propidium Iodide Flow-Activated Cell Sorting Analysis Detached cells were pelleted by centrifugation, washed in PBS, and resuspended in HYPO buffer (0.1% wt/vol) Na3Citrate and 0.1% (wt/vol) Triton™ X-100 containing […] propidium iodide and incubated for 1 hour. The cells were then analyzed by fluorescence-activated cell sorter (FACS) with a Becton Dickinson (San Jose, Calif.) FACScan instrument using a 488 nm excitation wavelength with a band pass filter set at 530 nm. Attached cells were scraped in HYPO buffer after washing cells with PBS.
DNA laddering was also used to compare the effect of gliotoxin, chlorpromazine, methapyrilene and also the combination of TNF-α with cycloheximide on hepatocytes and hepatic stellate cells.

[7] = test system: rat hepatic stellate cells; experiment: Hepatic stellate cell apoptosis by acridine orange staining and counting (cycloheximide or serum deprivation), rat cells; type: cell-based; conditions: rat HSC; protein at 142.5 ng/ml
Experimental: (§2) Human hepatic stellate cells were extracted from the margins of normal human liver resected for colonic metastatic disease as previously described (Iredale et al., Clin. Sci., (1995) 89: 75-81). Rat hepatic stellate cells were extracted from normal rat liver by Pronase and collagenase digestion and purified by centrifugal elutriation as described (Arthur et al., J. Clin. Invest., (1989) 84:1076-1085). Extracted hepatic stellate cells were cultured on plastic until they were activated to a myofibroblastic phenotype after 7 to 10 days. Human and rat hepatic stellate cells were used for experiments after activation in primary culture or before fourth passage. Cells were cultured in Dulbecco's modified Eagle's medium in the presence of 16% fetal calf serum and antibiotics.
(§3) Apoptosis of hepatic stellate cells was induced by absolute serum deprivation, cycloheximide treatment (Issa et al., Gut (2001) 48: S48-S57), or exposure to nerve growth factor as previously described (Trim et al., Am. J. Pathol., (2000) 156, 1235-1243). Hepatic stellate cells were cultured in 24-well tissue culture plates. Rat and human hepatic stellate cells were exposed to proapoptotic stimuli with and without recombinant TIMP-1 (Biogenesis, Poole, UK) and other manipulations as detailed below. Following a 4 hour incubation at 37° C., nuclear morphology was assessed by adding acridine orange to each well (final concentration 1 μg/ml) and observing the cells under blue fluorescence. The total number of apoptotic bodies was counted, and any apoptotic bodies floating in the supernatant were included by racking up the objective lens. The total number of cells per field was counted, and an apoptotic index was calculated. Each condition was performed in duplicate, and three high power fields were counted for each well. […] To examine for autocrine effects, hepatic stellate cells were incubated for 18 hours with azide-free polyclonal neutralizing antibodies to TIMP-1 and a nonimmune IgG control (Santa Cruz Biotechnology, Inc., Santa Cruz, Calif.), and responses were assessed by acridine orange staining and counting.
Apoptosis was assessed by acridine orange staining. […] A normal cell lies adjacent to the apoptotic body. This technique was used to determine the percentage of apoptotic hepatic stellate cells following exposure to cyclohexamide in the presence or absence of TIMP-1. Hepatic stellate cells were exposed to 50 μM cyclohexamide and 0, 1, 10, 100 or 200 ng/ml of TIMP-1. Cells treated with serum alone were used as controls. […] Bovine serum albumin, used as a carrier for the TIMP-1 had no antiapoptotic effect.

[8] = test system: human hepatic stellate cells; experiment: Hepatic stellate cell apoptosis by acridine orange staining and counting (cycloheximide or serum deprivation), human cells; type: cell-based; conditions: human HSC; protein at 142.5 ng/ml
Experimental: as §2
as §3, with “Rat and human hepatic stellate cells were exposed to proapoptotic stimuli with and without recombinant TIMP-1 (Biogenesis, Poole, UK) and other manipulations as detailed below.” left out
Apoptosis was assessed by acridine orange staining. […]

[9] = test system: caspase-3 activity in hepatic stellate cells; experiment: Caspase-3 activity in cycloheximide-treated hepatic stellate cells; type: cell-based; conditions: wild type TIMP-1 or T2G mutant N-TIMP-1
Experimental: Apoptosis was quantified by a colorimetric assay for caspase-3 activity (Promega) according to the manufacturer's instructions.
Caspase-3 is a central caspase in the proapoptotic cascade (Hengartner, Nature (2000) 407, 770-776) and can be used as an alternative assay to assess apoptosis. Hepatic stellate cells were cultured in 50 μM cycloheximide with TIMP-1 at a concentration of 0, 1, 10, or 100 ng/ml. Controls where cells were incubated with either the caspase 3 inhibitor benzyloxycarbonyl-Val-Ala-Asp-fluoromethylketone or serum alone were also performed. Data are expressed as mean ±S.E. and are presented as percentage of control given the arbitrary value of 100%. * indicates p<0.001; n=3. […] Although the mean caspase-3 activity of the cells treated with 10 ng/ml TIMP-1 was slightly lower than that treated with 100 ng/ml of TIMP-1, this was not statistically significant (p=0.67 by Student's t test).

CC(O)C(C)OC(=O)[C@@H]1C[C@@H]2c3cccc4c3c(cn4C(C)C)C[C@H]2N(C)C1 (stereo partly shown) [LY 53,857]
maximal nuclear condensation ([1]; 24 hours at 100 μM (LY 53,857)): ~100%
specific caspase 3 activity ([2]; 100 μM for 24 hours (LY 53,857)): 1 μmol pNA liberated/hour/μg protein
effect of serotonin on the specific caspase 3 activity [2]: not significantly reduced by the presence of serotonin

CSc1ccc2c(c1)C(N1CCN(C)CC1)Cc1ccccc1S2.O=C(O)/C=C\C(=O)O (stereo not shown) [Methiothepin maleate]
maximal nuclear condensation ([1]; 3 hours at 10-100 μM (Methiothepin maleate)): 100%
specific caspase 3 activity ([2]; 10 μM for 3 hours (Methiothepin maleate)): 0.9 μmol pNA liberated/hour/μg protein
effect of serotonin on the specific caspase 3 activity [2]: not significantly reduced by the presence of serotonin

O=C(CCCN1CCC2(CC1)C(=O)NCN2c1ccccc1)c1ccc(F)cc1 [Spiperone]
maximal nuclear condensation ([1]; 24 hours at 100 μM (Spiperone)): 80%
specific caspase 3 activity ([2]; 100 μM for 24 hours (Spiperone)): 6.5 μmol pNA liberated/hour/μg protein
specific caspase 3 activity in the presence of serotonin ([2]; Spiperone 100 μM for 24 hours with serotonin (100 M [sic])): 4 μmol pNA liberated/hr/μg protein

CN(C)CCCN1c2ccccc2Sc2ccc(Cl)cc21 [chlorpromazine]
increase in caspase 3 activity [3]: not seen
0.1% (wt/vol) trypan blue exclusion (membrane integrity) [4]: unable to exclude 0.1% (wt/vol) trypan blue
hepatocytes that do not exclude trypan blue, compared with 50 μmol/L gliotoxin (rat hepatocytes [5]): a level similar
cleavage of hepatocyte DNA to a nucleosomal ladder (rat hepatocytes [6]): only hepatocytes treated with TNF-α and cycloheximide cleaved their DNA to a nucleosomal ladder

wild type N-TIMP-1: wild type (active) TIMP-1 protein compared with the T2G mutant
apoptosis induced by cycloheximide (acridine orange) [7]: significantly inhibited apoptosis
apoptosis induced by cycloheximide (acridine orange) [8]: significantly inhibited apoptosis
caspase-3 activity in cycloheximide-treated hepatic stellate cells [9]: significantly reduced caspase-3 activity
